Source: patent publication US11707500B2, “Growth promoting peptides, and uses thereof” (NURITAS LIMITED, priority 2015, dated 2023)

The substances below were run on Human Dermal Fibroblasts (HDF) (assay: BrdU cell proliferation assay). Conditions: text on FIGS. 1-100; incubated with synthetic peptide 24 h; vs untreated control.
Assay type: cell-based

With SRGPIYSNE [SEQ ID NO: 83] as the substance, how does the “increase in HDF cell proliferation” value read?
Its value is 32%.

SSEEGYYGEQQQQPGMTR [SEQ ID NO: 252] was tested. Which “increase in HDF cell proliferation” value did it give?
Its value is 111%.

Which “increase in HDF cell proliferation” value does the source give for “TIKLPAGTTSYLVNQDDEEDLRLVD [SEQ ID NO: 181]” here?
The value was 33%.

For TVFNGVLRPGQLL [SEQ ID NO: 270], which “increase in HDF cell proliferation” value is on record?
Its value is 47%.

Which “increase in HDF cell proliferation” value does the source give for VGWGEQPWSPY [SEQ ID NO: 454] here?
Its value is 38%.

VIPAGHPVAVR [SEQ ID NO: 330] was tested. Which “increase in HDF cell proliferation” value did it give?
The value was 18%.

With VIPVNGPGK [SEQ ID NO: 124] as the substance, how does the “increase in HDF cell proliferation” value read?
The value was 15%.

Which “increase in HDF cell proliferation” value does the source give for “VVIIPAGHPVAITASSNLNLLGFG [SEQ ID NO: 112]” here?
Its value is 15%.

For WDP (WDPA) [SEQ ID NO: 500], which “increase in HDF cell proliferation” value is on record?
The value was 6%.

WMK (WMKA) [SEQ ID NO: 473] was tested. Which “increase in HDF cell proliferation” value did it give?
The value was 41%.

How did the “increase in HDF cell proliferation” value turn out when YGEQQQQPGMTR [SEQ ID NO: 256] was run?
The value was 117%.

With YLRGFS [SEQ ID NO: 503] as the substance, how does the “increase in HDF cell proliferation” value read?
Its value is 125%.

For YPQLQDLDL [SEQ ID NO: 114], which “increase in HDF cell proliferation” value is on record?
The value was 119%.

Which “increase in HDF cell proliferation” value does the source give for YRELGAPDVGHPMSE [SEQ ID NO: 410] here?
Its value is 73%.

Which “increase in HDF cell proliferation” value does the source give for YYGEQQQQPGMTR [SEQ ID NO: 257] here?
The value was 118%.

Each substance was assayed on Human Dermal Fibroblasts (HDF) (assay: BrdU cell proliferation assay). Conditions: HDF incubated 24 h with 5, 0.5 or 0.05 μg/ml synthetic peptide; percentage of untreated control.
Assay type: cell-based
Procedure: BrDu is incorporated into newly synthesised DNA strands of actively proliferating cells. Following partial denaturation of double stranded DNA, Brdu is detected immunochemically allowing the assessment of the population of cells which are synthesizing DNA.
Human Dermal Fibroblasts (HDF—Sigma 10605a) were seeded in a 96 well plate at 10,000 cells per well in DMEM containing 10% fetal calf serum (FCS), 1% Pen/strep, 1% L-glutamine and allowed to adhere for 24 h.
Following the initial 24 h incubation the cells were incubated with 5 μg/ml, 0.5 μg/ml or 0.05 μg/ml synthetic peptide for 24 h respectively.
After 18 h incubation with synthetic peptides 20 μl BrDu reagent was added to each well.
At 24 h incubation the cell were fixed and the amount of […] was measured using the BrdU Cell Proliferation Assay, all steps were carried out according to the manufacturer's instructions.
Results were calculated as a percentage of the untreated control. An increase in optical density reading indicates greatER incorporation of BrDu and increase cell proliferation.

How did the “INCREASE IN PROLIFERATION” value turn out when 73 (ASSNLDLLGFG) [compound 73] was run?
Its value is 16%.

74 (DEEEEQGEEEINK) [compound 74] was tested. Which “INCREASE IN PROLIFERATION” value did it give?
Its value is 29%.

83 (SRGPIYSNE) [compound 83] was tested. Which “INCREASE IN PROLIFERATION” value did it give?
Its value is 32%.

84 (EDDEEEEQGEEEINK) [compound 84] was tested. Which “INCREASE IN PROLIFERATION” value did it give?
Its value is 20%.

Which “INCREASE IN PROLIFERATION” value does the source give for 85 (DDEEEEQGEEEINK) [compound 85] here?
Its value is 35%.

With 93 (ITASSNLNLLGFG) [compound 93] as the substance, how does the “INCREASE IN PROLIFERATION” value read?
The value was 26%.

For 97 (LVIPVNGPGKFE) [compound 97], which “INCREASE IN PROLIFERATION” value is on record?
Its value is 26%.

With 98 (LVIPVNGPGKFEA) [compound 98] as the substance, how does the “INCREASE IN PROLIFERATION” value read?
Its value is 49%.

For 105 (LVIPVNGPGKF) [compound 105], which “INCREASE IN PROLIFERATION” value is on record?
The value was 40%.

“112 (VVIIPAGHPVAITASSNLNLLGFG) [compound 112]” was tested. Which “INCREASE IN PROLIFERATION” value did it give?
The value was 15%.

Which “INCREASE IN PROLIFERATION” value does the source give for 114 (YPQLQDLDL) [compound 114] here?
The value was 119%.

Which “INCREASE IN PROLIFERATION” value does the source give for 121 (LVIPVNGPGK) [compound 121] here?
The value was 48%.

124 (VIPVNGPGK) [compound 124] was tested. Which “INCREASE IN PROLIFERATION” value did it give?
Its value is 15%.

Which “INCREASE IN PROLIFERATION” value does the source give for 146 (RHGEWRPSY) [compound 146] here?
The value was 80%.

How did the “INCREASE IN PROLIFERATION” value turn out when 158 (NYDEGSEPRVPAQRE) [compound 158] was run?
Its value is 21%.

Which “INCREASE IN PROLIFERATION” value does the source give for “181 (TIKLPAGTTSYLVNQDDEEDLRLVD) [compound 181]” here?
The value was 33%.

How did the “INCREASE IN PROLIFERATION” value turn out when 222 (IDGYDTPVEGR) [compound 222] was run?
Its value is 110%.

226 (IYGPDTGVDYKDNQMR) [compound 226] was tested. Which “INCREASE IN PROLIFERATION” value did it give?
Its value is 30%.

247 (EGYYGEQQQQPGMTR) [compound 247] was tested. Which “INCREASE IN PROLIFERATION” value did it give?
Its value is 28%.

Which “INCREASE IN PROLIFERATION” value does the source give for 248 (GYYGEQQQQPGMTR) [compound 248] here?
The value was 86%.

With 249 (EEGYYGEQQQQPGMTR) [compound 249] as the substance, how does the “INCREASE IN PROLIFERATION” value read?
Its value is 30%.

How did the “INCREASE IN PROLIFERATION” value turn out when 252 (SSEEGYYGEQQQQPGMTR) [compound 252] was run?
The value was 111%.

With 253 (SEEGYYGEQQQQPGMTR) [compound 253] as the substance, how does the “INCREASE IN PROLIFERATION” value read?
Its value is 112%.

256 (YGEQQQQPGMTR) [compound 256] was tested. Which “INCREASE IN PROLIFERATION” value did it give?
Its value is 117%.

For 257 (YYGEQQQQPGMTR) [compound 257], which “INCREASE IN PROLIFERATION” value is on record?
The value was 118%.

How did the “INCREASE IN PROLIFERATION” value turn out when 270 (TVFNGVLRPGQLL) [compound 270] was run?
Its value is 47%.

For 272 (NGVLRPGQL) [compound 272], which “INCREASE IN PROLIFERATION” value is on record?
Its value is 97%.

285 (DALEPDNR) [compound 285] was tested. Which “INCREASE IN PROLIFERATION” value did it give?
The value was 81%.

330 (VIPAGHPVAVR) [compound 330] was tested. Which “INCREASE IN PROLIFERATION” value did it give?
Its value is 18%.

How did the “INCREASE IN PROLIFERATION” value turn out when 337 (IEKILLEE) [compound 337] was run?
Its value is 8%.

How did the “INCREASE IN PROLIFERATION” value turn out when 341 (EVEERSQNIF) [compound 341] was run?
The value was 83%.

Which “INCREASE IN PROLIFERATION” value does the source give for 359 (GAFTPLQYKSYQD) [compound 359] here?
The value was 15%.

Which “INCREASE IN PROLIFERATION” value does the source give for 365 (GAFTPLQYK) [compound 365] here?
Its value is 58%.

Which “INCREASE IN PROLIFERATION” value does the source give for 403 (LGAPDVGHPM) [compound 403] here?
The value was 51%.

With 410 (YRELGAPDVGHPMSE) [compound 410] as the substance, how does the “INCREASE IN PROLIFERATION” value read?
The value was 73%.

Which “INCREASE IN PROLIFERATION” value does the source give for 452 (HPRPPKPDAPR) [compound 452] here?
Its value is 76%.

For 453 (LQQAPPPPQR) [compound 453], which “INCREASE IN PROLIFERATION” value is on record?
Its value is 25%.

Which “INCREASE IN PROLIFERATION” value does the source give for 454 (VGWGEQPWSPY) [compound 454] here?
Its value is 38%.

Which “INCREASE IN PROLIFERATION” value does the source give for 455 (FHMPP) [compound 455] here?
Its value is 47%.

With 457 (FWMA) [compound 457] as the substance, how does the “INCREASE IN PROLIFERATION” value read?
The value was 114%.

Which “INCREASE IN PROLIFERATION” value does the source give for 460 (HMPSS) [compound 460] here?
The value was 38%.

For 461 (HRFR) [compound 461], which “INCREASE IN PROLIFERATION” value is on record?
The value was 85%.

For 462 (HRRS) [compound 462], which “INCREASE IN PROLIFERATION” value is on record?
The value was 15%.

For 463 (HSPR) [compound 463], which “INCREASE IN PROLIFERATION” value is on record?
The value was 100%.

With 464 (HWFA) [compound 464] as the substance, how does the “INCREASE IN PROLIFERATION” value read?
Its value is 18%.

For 465 (MFRR) [compound 465], which “INCREASE IN PROLIFERATION” value is on record?
Its value is 96%.

With 467 (MPPS) [compound 467] as the substance, how does the “INCREASE IN PROLIFERATION” value read?
Its value is 90%.

For 468 (MPRR) [compound 468], which “INCREASE IN PROLIFERATION” value is on record?
Its value is 82%.

470 (PHMP) [compound 470] was tested. Which “INCREASE IN PROLIFERATION” value did it give?
The value was 119%.

For 471 (PHMPS) [compound 471], which “INCREASE IN PROLIFERATION” value is on record?
Its value is 38%.

With 472 (PRRF) [compound 472] as the substance, how does the “INCREASE IN PROLIFERATION” value read?
The value was 77%.

With 473 (WMKA) [compound 473] as the substance, how does the “INCREASE IN PROLIFERATION” value read?
The value was 41%.

With 474 (DSINALEPDHR) [compound 474] as the substance, how does the “INCREASE IN PROLIFERATION” value read?
Its value is 121%.

477 (IFEDAITIPGR) [compound 477] was tested. Which “INCREASE IN PROLIFERATION” value did it give?
The value was 81%.

For 478 (LDALEPDNRIESE) [compound 478], which “INCREASE IN PROLIFERATION” value is on record?
Its value is 76%.

479 (KTLDYWPSLR) [compound 479] was tested. Which “INCREASE IN PROLIFERATION” value did it give?
Its value is 106%.

Which “INCREASE IN PROLIFERATION” value does the source give for 480 (RHGEWGPSY) [compound 480] here?
The value was 102%.

With 482 (ILVDGSHDIER) [compound 482] as the substance, how does the “INCREASE IN PROLIFERATION” value read?
The value was 113%.

With 495 (HPMS) [compound 495] as the substance, how does the “INCREASE IN PROLIFERATION” value read?
Its value is 68%.

For 497 (MPMP) [compound 497], which “INCREASE IN PROLIFERATION” value is on record?
Its value is 58%.

Which “INCREASE IN PROLIFERATION” value does the source give for 499 (PNSM) [compound 499] here?
The value was 113%.

Which “INCREASE IN PROLIFERATION” value does the source give for 500 (WDPA) [compound 500] here?
Its value is 6%.

For 501 (LRGFSK) [compound 501], which “INCREASE IN PROLIFERATION” value is on record?
Its value is 43%.

For 502 (RSQNIF) [compound 502], which “INCREASE IN PROLIFERATION” value is on record?
The value was 68%.

With 503 (YLRGFS) [compound 503] as the substance, how does the “INCREASE IN PROLIFERATION” value read?
The value was 125%.

With 504 (GALMLPHYN) [compound 504] as the substance, how does the “INCREASE IN PROLIFERATION” value read?
The value was 119%.

With 505 (GALMLPHYNSR) [compound 505] as the substance, how does the “INCREASE IN PROLIFERATION” value read?
The value was 118%.
